Eleven compounds from ChEMBL document CHEMBL1201862, “PubChem BioAssay data set” (2004) can be followed below.

Some test systems named below: TK-10; U-251; OVCAR-5; NCI/ADR-RES; UO-31; RPMI-8226; HOP-92; CCRF-CEM; NCI-H460; HT-29; SW-620; HCT-15; SK-MEL-2; BT-549; EKVX; A498; K562; ACHN; OVCAR-4.
Holding throughout (assay): inhibition of tumour cell growth, NCI panel, 48 h

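Cells were grown in 96-well plates and exposed to each compound for 48 hours at five concentrations; endpoints were interpolated linearly between bracketing concentrations, or set to the highest concentration if not reached. GI50 is the concentration that inhibits growth by half.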 Calls of active or inactive are those of the source. No stated cut-off is given here; in the data, active = GI50 up to about 1.1 µM and inactive = higher. Some results are limits rather than exact numbers.

Take `COc1cccc(Cc2cc(=O)c3ccc(C)nc3[nH]2)c1`: the GI50 in the experiment on TK-10 is > 100 µM (inactive); in the experiment with U-251, > 100 µM (inactive); with OVCAR-5, > 100 µM (inactive); in the experiment with NCI/ADR-RES it was > 100 µM (inactive); in the experiment on UO-31, > 100 µM (inactive); in the experiment with RPMI-8226 it was 48.6 µM (inactive). The GI50 with HOP-92 was > 100 µM (inactive); in the experiment with CCRF-CEM, > 100 µM (inactive); in the experiment on NCI-H460, > 100 µM (inactive); in the experiment with HT-29, > 100 µM (inactive); in the experiment with SW-620 it was > 100 µM (inactive); with HCT-15, more than 100 µM. In addition, the GI50 in the experiment with SK-MEL-2 is > 100 µM (inactive); in the experiment on BT-549 it was 94.8 µM (inactive); in the experiment on EKVX, > 100 µM (inactive); with A498, 73.5 µM (inactive); in the experiment with K562, 86.7 µM (inactive).

With `COc1cccc(-c2cc(O)c3cc(NC(C)=O)ccc3n2)c1`, the GI50 in the experiment on TK-10 is > 100 µM (inactive); in the experiment on U-251, 9.57 µM (inactive); with OVCAR-5, 59.4 µM (inactive); in the experiment with NCI/ADR-RES, 62.8 µM (inactive); in the experiment with UO-31, 71.6 µM (inactive); with RPMI-8226 it was 42.9 µM (inactive). The GI50 is 8.17 µM (inactive) in the experiment on HOP-92; 5.6 µM (inactive) in the experiment with CCRF-CEM; 33 µM (inactive) in the experiment with NCI-H460; > 100 µM (inactive) in the experiment with ACHN; 22 µM (inactive) in the experiment with HT-29; 47.8 µM (inactive) in the experiment on SW-620. Also, the GI50 in the experiment on HCT-15 is 32 µM; in the experiment with BT-549, > 100 µM (inactive); in the experiment on EKVX, 53 µM (inactive); in the experiment with A498 it was 17 µM (inactive).

Regarding `COc1ccc(SC(C)(SC)c2ccccn2)c(OC)n1` (configuration not stated), the GI50 was > 100 µM (inactive) in the experiment with TK-10; > 100 µM (inactive) with U-251; > 100 µM (inactive) in the experiment on OVCAR-5; 53.6 µM (inactive) in the experiment on NCI/ADR-RES; > 100 µM (inactive) in the experiment with UO-31; 23.3 µM (inactive) with RPMI-8226. Also, the GI50 with HOP-92 was 70 µM (inactive); with NCI-H460, 73.1 µM (inactive); with ACHN, > 100 µM (inactive); in the experiment with OVCAR-4 it was 83.4 µM (inactive); in the experiment on HT-29, 42.7 µM (inactive); in the experiment with SW-620, > 100 µM (inactive). The GI50 with HCT-15 is 54.7 µM; in the experiment on SK-MEL-2, 30.8 µM (inactive); in the experiment with BT-549 it was 64.9 µM (inactive); in the experiment on EKVX, > 100 µM (inactive); in the experiment on A498, 53.3 µM (inactive); in the experiment on K562, 51.4 µM (inactive).

With `COC(=O)C1=C(O)C(C(=O)OC)[C@]2(O)[C@H](C(=O)OC)[C@H]1C[C@@H](c1c(Cl)cccc1Cl)[C@H]2C(=O)OC` (some centres not stated), the GI50 is 1.32 µM (inactive) in the experiment with U-251; 2.04 µM (inactive) with NCI/ADR-RES; 1.65 µM (inactive) in the experiment with UO-31; 1.51 µM (inactive) with RPMI-8226; 2.69 µM (inactive) in the experiment with HOP-92; 2.31 µM (inactive) with NCI-H460. Further, the GI50 was 2.19 µM (inactive) in the experiment with ACHN; 3.6 µM (inactive) in the experiment on OVCAR-4; 2.33 µM (inactive) in the experiment with HT-29; 2.55 µM (inactive) with SW-620; 1.74 µM in the experiment on HCT-15; 1.49 µM (inactive) in the experiment on SK-MEL-2. Moreover, the GI50 in the experiment on BT-549 was 1.88 µM (inactive); in the experiment with EKVX, 4.25 µM (inactive); with A498, 2 µM (inactive); in the experiment with K562, 2.05 µM (inactive).

In the case of `O=C(O)[C@H]1[C@@H](C2CCCCC2)O[C@@H](C2CCCCC2)O[C@H]1C(F)(F)F`, the GI50 in the experiment on TK-10 was 60.1 µM (inactive); with U-251 it was 18.8 µM (inactive); in the experiment with OVCAR-5, 20.2 µM (inactive); in the experiment on NCI/ADR-RES, 40.6 µM (inactive); in the experiment on UO-31, 26.2 µM (inactive); in the experiment on RPMI-8226, 23.9 µM (inactive). For the same compound, the GI50 in the experiment on HOP-92 was 18.8 µM (inactive); in the experiment with CCRF-CEM, 22.8 µM (inactive); with NCI-H460 it was 19.3 µM (inactive); in the experiment on ACHN, 18.7 µM (inactive); with OVCAR-4, 36.2 µM (inactive); with HT-29 it was 22.6 µM (inactive). Moreover, the GI50 in the experiment on SW-620 is 19.8 µM (inactive); in the experiment on HCT-15 it was 30.1 µM; with BT-549, 33.2 µM (inactive); in the experiment on EKVX, 21.4 µM (inactive); in the experiment with A498 it was 19 µM (inactive); with K562, 33.1 µM (inactive).

Consider `CC(NC(=O)/C(=C/c1ccccc1)NC(=O)c1ccccc1)C(=O)O` (configuration not stated), for which the GI50 in the experiment with U-251 was 34 µM (inactive); with OVCAR-5, > 100 µM (inactive); in the experiment on NCI/ADR-RES, 40.5 µM (inactive); in the experiment on UO-31 it was 91.4 µM (inactive); with RPMI-8226, > 100 µM (inactive); with HOP-92, 33.1 µM (inactive). Also, the GI50 was > 100 µM (inactive) in the experiment with CCRF-CEM; > 100 µM (inactive) in the experiment on NCI-H460; 38.6 µM (inactive) in the experiment with ACHN; > 100 µM (inactive) with HT-29; > 100 µM (inactive) in the experiment on SW-620; 87.9 µM in the experiment on HCT-15. The GI50 with SK-MEL-2 was > 100 µM (inactive); with BT-549 it was > 100 µM (inactive); in the experiment with EKVX, 40.4 µM (inactive); in the experiment on A498, > 100 µM (inactive); in the experiment on K562 it was > 100 µM (inactive).

Regarding `O=C(O)/C=C/C=C/c1ccc2c(c1)OCO2` [PIPERIC ACID], the GI50 in the experiment on TK-10, in the experiment with U-251, with OVCAR-5, in the experiment on NCI/ADR-RES, in the experiment with UO-31 and in the experiment with RPMI-8226 was > 100 µM (inactive) in each case. Besides, the GI50 in the experiment on HOP-92, in the experiment with NCI-H460, in the experiment on ACHN, in the experiment on OVCAR-4, with HT-29 and in the experiment on SW-620 was > 100 µM (inactive) each time. Also, the GI50 in the experiment on HCT-15 is more than 100 µM; in the experiment on SK-MEL-2, > 100 µM (inactive); in the experiment with BT-549, > 100 µM (inactive); in the experiment with EKVX it was > 100 µM (inactive); in the experiment with A498, > 100 µM (inactive); in the experiment on K562, > 100 µM (inactive).

As for `CC(C)(C)N/N=C(\C(=O)Nc1ccc([N+](=O)[O-])cc1[N+](=O)[O-])c1nc2ccc([N+](=O)[O-])cc2nc1O`, the GI50 is > 100 µM (inactive) in the experiment on U-251; > 100 µM (inactive) with OVCAR-5; > 100 µM (inactive) in the experiment on NCI/ADR-RES; 82.2 µM (inactive) in the experiment on UO-31; 13.2 µM (inactive) in the experiment with RPMI-8226; > 100 µM (inactive) in the experiment on HOP-92. Further, the GI50 was 98.9 µM (inactive) in the experiment on CCRF-CEM; 31.8 µM (inactive) with NCI-H460; > 100 µM (inactive) with ACHN; 33.3 µM (inactive) with OVCAR-4; > 100 µM (inactive) with HT-29; > 100 µM (inactive) with SW-620. Moreover, the GI50 in the experiment on HCT-15 is 43.4 µM; with SK-MEL-2, > 100 µM (inactive); in the experiment on BT-549, > 100 µM (inactive); in the experiment on EKVX, > 100 µM (inactive); with A498, > 100 µM (inactive); in the experiment with K562, 37 µM (inactive).

Consider `O=C(NCCC1CNc2ccccc21)OCc1ccccc1` (configuration not stated), for which the GI50 with U-251, in the experiment with OVCAR-5, with NCI/ADR-RES, with UO-31, in the experiment with RPMI-8226 and in the experiment on HOP-92 was > 100 µM (inactive) each time. The GI50 in the experiment on CCRF-CEM is 87.7 µM (inactive); with NCI-H460 it was > 100 µM (inactive); in the experiment on ACHN, > 100 µM (inactive); in the experiment with OVCAR-4, > 100 µM (inactive); in the experiment on HT-29, > 100 µM (inactive); in the experiment with SW-620 it was > 100 µM (inactive). In addition, the GI50 is more than 100 µM with HCT-15; > 100 µM (inactive) with SK-MEL-2; > 100 µM (inactive) with BT-549; > 100 µM (inactive) in the experiment with EKVX; > 100 µM (inactive) in the experiment with A498; > 100 µM (inactive) in the experiment with K562.

Turning to `COC(c1ccsc1)C(C#N)(C#N)/N=C/c1ccsc1` (configuration not stated), the GI50 with TK-10 is 17.7 µM (inactive); in the experiment with U-251, 17.3 µM (inactive); with OVCAR-5 it was 20.9 µM (inactive); in the experiment on NCI/ADR-RES, 17.7 µM (inactive); in the experiment with UO-31, 13.4 µM (inactive); in the experiment on HOP-92, 12 µM (inactive). For the same compound, the GI50 in the experiment with CCRF-CEM is 5.96 µM (inactive); with NCI-H460, 18.4 µM (inactive); in the experiment on ACHN it was 18.7 µM (inactive); in the experiment with OVCAR-4 it was 20.9 µM (inactive); in the experiment on HT-29, 12.5 µM (inactive); in the experiment with SW-620, 14.6 µM (inactive). Further, the GI50 in the experiment on HCT-15 was 13 µM; in the experiment on SK-MEL-2 it was 19 µM (inactive); in the experiment with BT-549 it was 17 µM (inactive); in the experiment on EKVX, 14.2 µM (inactive); with A498, 14.9 µM (inactive); with K562, 13 µM (inactive).

Regarding `O=C1Nc2ccccc2/C1=N\c1cccc2ncccc12`, the GI50 in the experiment with TK-10 is > 100 µM (inactive); in the experiment with U-251, 67.5 µM (inactive); in the experiment on OVCAR-5, 63 µM (inactive); with NCI/ADR-RES, > 100 µM (inactive); in the experiment with UO-31 it was > 100 µM (inactive); in the experiment on RPMI-8226 it was 36.5 µM (inactive). In addition, the GI50 with HOP-92 is 42.5 µM (inactive); in the experiment with NCI-H460, 69.7 µM (inactive); in the experiment with ACHN, > 100 µM (inactive); with OVCAR-4 it was 68.9 µM (inactive); with HT-29 it was 58.3 µM (inactive); in the experiment with SW-620 it was > 100 µM (inactive). In addition, the GI50 is 68.1 µM with HCT-15; > 100 µM (inactive) in the experiment with SK-MEL-2; > 100 µM (inactive) with BT-549; 19.1 µM (inactive) with EKVX; > 100 µM (inactive) in the experiment with A498; 34 µM (inactive) in the experiment on K562.
